The values below come from ChEMBL document CHEMBL1201862, “PubChem BioAssay data set” (2004).

Some test systems named below: HOP-92; Malme-3M; ACHN; HCT-15; COLO 205; SNB-78; SF-539; UACC-62; NCI-H226; OVCAR-3; SNB-75; OVCAR-5; MOLT-4; SK-MEL-2; OVCAR-4; MDA-N; HCT-116; SR; NCI/ADR-RES.
Holding throughout (experiment): NCI tumour cell line growth inhibition, 48 h

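Five compound concentrations were applied to cells in 96-well plates for 48 hours; endpoints were derived by simple linear interpolation of the resulting dose-response curve. GI50: concentration for 50% inhibition of growth.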 The source made the active and inactive calls. Rule as the data show it: active = GI50 up to about 1.1 µM and inactive = higher.

Consider `CC(=O)Oc1c2c(c(O)c3ccccc13)C(n1cnc3c(ncn3C3OC(CO)C4OC(C)(C)OC43)c1=N)CCC2` (centres undefined), for which the GI50 in the assay on HOP-92 was 22.6 µM (inactive); in the assay on Malme-3M, 11.2 µM (inactive); in the assay on ACHN, 16.5 µM (inactive); in the assay on HCT-15, 14.8 µM; with COLO 205 it was 16.9 µM (inactive); with SNB-78 it was 23 µM (inactive). Moreover, the GI50 with SF-539 was 18.2 µM (inactive); in the assay with UACC-62, 13.9 µM (inactive); in the assay on NCI-H226, 23.3 µM (inactive); with OVCAR-3, 14.5 µM (inactive); with SNB-75, 17.5 µM (inactive); with OVCAR-5, 21.2 µM (inactive). The GI50 in the assay with MOLT-4 was 11.1 µM (inactive); in the assay with SK-MEL-2, 15.4 µM (inactive).

For the compound `CC(=O)NC(CS/N=N/c1[nH]cnc1C(N)=O)C(=O)O` (centres undefined), the GI50 is 3.31 µM (inactive) in the assay with OVCAR-4; 6.93 µM (inactive) in the assay with HOP-92; 5.05 µM (inactive) with MDA-N; 2.16 µM (inactive) in the assay on Malme-3M; 6.27 µM (inactive) in the assay on ACHN; 19.5 µM with HCT-15. The GI50 was 7.24 µM (inactive) in the assay on COLO 205; 7.87 µM (inactive) in the assay on SF-539; 4.21 µM (inactive) in the assay on UACC-62; 2.51 µM (inactive) in the assay with NCI-H226; 10 µM (inactive) with OVCAR-3; 16.9 µM (inactive) in the assay on SNB-75. For the same compound, the GI50 in the assay with HCT-116 was 5.5 µM (inactive); in the assay with OVCAR-5, > 76.2 µM (inactive); in the assay on MOLT-4 it was 3.38 µM (inactive); in the assay with SK-MEL-2 it was 2.42 µM (inactive); with SR, < 0.01 µM (active); in the assay on NCI/ADR-RES, 3.04 µM (inactive).

In the case of `Cc1cc(C)nc(NS(=O)(=O)c2ccc(NNc3c4ccccc4nc4c(C(=O)Nc5ccc(S(N)(=O)=O)cc5)cccc34)cc2)n1`, the GI50 with OVCAR-4 was 49.5 µM (inactive); with HOP-92, 17.4 µM (inactive); with MDA-N it was 49.5 µM (inactive); in the assay with Malme-3M, 43.3 µM (inactive); in the assay with ACHN, 28.1 µM (inactive); with HCT-15 it was greater than 100 µM. Further, the GI50 in the assay with COLO 205 was > 100 µM (inactive); in the assay on SF-539, 40.7 µM (inactive); in the assay with UACC-62, 27.7 µM (inactive); in the assay on NCI-H226 it was 32 µM (inactive); with OVCAR-3 it was 25.9 µM (inactive); in the assay on SNB-75, 18.6 µM (inactive). Besides, the GI50 in the assay with HCT-116 is 28.2 µM (inactive); in the assay on OVCAR-5, 31.1 µM (inactive); in the assay with MOLT-4, 17.1 µM (inactive); with SK-MEL-2 it was 12.8 µM (inactive); in the assay on SR it was 12.8 µM (inactive); with NCI/ADR-RES it was > 100 µM (inactive).

Regarding `CCCC(=O)NC(Nc1ccc(F)cc1)(C(F)(F)F)C(F)(F)F`, the GI50 is 12.6 µM (inactive) in the assay on OVCAR-4; > 100 µM (inactive) in the assay on HOP-92; > 40.7 µM (inactive) in the assay with MDA-N; > 100 µM (inactive) in the assay on Malme-3M; 2.14 µM (inactive) in the assay on ACHN; 5.79 µM with HCT-15. The GI50 in the assay with COLO 205 is 7.1 µM (inactive); with SF-539, > 79.4 µM (inactive); with UACC-62 it was 1.09 µM (active); with NCI-H226 it was > 100 µM (inactive); with OVCAR-3, > 100 µM (inactive); with SNB-75, > 100 µM (inactive). In addition, the GI50 with HCT-116 is 19.8 µM (inactive); in the assay on OVCAR-5, > 100 µM (inactive); in the assay on MOLT-4 it was 7.98 µM (inactive); in the assay on SK-MEL-2, 2.25 µM (inactive); in the assay with SR it was > 100 µM (inactive); in the assay with NCI/ADR-RES it was 9.31 µM (inactive).

For the compound `CCOP(=O)(OCC)C(C)(C)N(C)/C(F)=N/C(F)(F)F`, the GI50 with OVCAR-4 was > 100 µM (inactive); with HOP-92 it was > 100 µM (inactive); in the assay on MDA-N it was > 100 µM (inactive); with Malme-3M, > 100 µM (inactive); with ACHN it was > 100 µM (inactive); with HCT-15, greater than 100 µM. For the same compound, the GI50 with COLO 205, in the assay on SF-539, in the assay on UACC-62, in the assay with NCI-H226, in the assay on OVCAR-3 and in the assay on SNB-75 was > 100 µM (inactive) each time. The GI50 in the assay on HCT-116, in the assay with OVCAR-5, in the assay with MOLT-4, in the assay with SK-MEL-2, in the assay with SR and in the assay on NCI/ADR-RES was > 100 µM (inactive) throughout.

Regarding `CN(C)c1ccc(C(Cc2ccccc2)C2NC(=S)NC2=O)cc1` (centres undefined), the GI50 in the assay with OVCAR-4 was 28.4 µM (inactive); in the assay on HOP-92, > 100 µM (inactive); in the assay with MDA-N, > 100 µM (inactive); in the assay with Malme-3M, > 74.8 µM (inactive); in the assay on ACHN, > 100 µM (inactive); with HCT-15, greater than 100 µM. Further, the GI50 in the assay with COLO 205 is > 100 µM (inactive); in the assay on SF-539, 47.8 µM (inactive); in the assay with UACC-62 it was 67 µM (inactive); with NCI-H226, > 100 µM (inactive); in the assay on OVCAR-3 it was > 100 µM (inactive); in the assay with SNB-75, > 100 µM (inactive). The GI50 in the assay on HCT-116 is > 100 µM (inactive); with OVCAR-5, > 100 µM (inactive); in the assay on MOLT-4, 61.1 µM (inactive); with SK-MEL-2, > 100 µM (inactive); in the assay on SR, 2.17 µM (inactive); in the assay on NCI/ADR-RES, > 100 µM (inactive).

Regarding `C/C=C(/C)C(=O)O[C@@H]1CCN2CC[C@H](COC(=O)/C(=C/C)CO)C12` (some centres undefined), the GI50 is > 100 µM (inactive) in the assay with OVCAR-4; 58.2 µM (inactive) in the assay with HOP-92; 39.2 µM (inactive) in the assay on MDA-N; 32 µM (inactive) with Malme-3M; > 100 µM (inactive) in the assay with ACHN; greater than 100 µM in the assay with HCT-15. Moreover, the GI50 with COLO 205 is 20.6 µM (inactive); in the assay on SF-539, 84.1 µM (inactive); in the assay with UACC-62, > 100 µM (inactive); in the assay with NCI-H226, > 100 µM (inactive); with OVCAR-3 it was > 100 µM (inactive); in the assay with SNB-75, > 95.3 µM (inactive). Besides, the GI50 in the assay with HCT-116 was 48.8 µM (inactive); in the assay on OVCAR-5 it was > 100 µM (inactive); in the assay on MOLT-4 it was 25.9 µM (inactive); with SK-MEL-2, 41.4 µM (inactive); in the assay on SR it was 39.5 µM (inactive); in the assay on NCI/ADR-RES it was > 100 µM (inactive).

As to `O=C1OC(C2Cc3ccc4c(c3C2=O)CCC4)c2ccccc21` (centres undefined), the GI50 in the assay on OVCAR-4 is 38.1 µM (inactive); in the assay on HOP-92, 56.2 µM (inactive); with MDA-N, 40.3 µM (inactive); in the assay with Malme-3M it was 94.4 µM (inactive); in the assay with ACHN it was 38.2 µM (inactive); in the assay on HCT-15, 39.1 µM. Also, the GI50 in the assay with COLO 205 is 20.7 µM (inactive); in the assay on SF-539, 28.2 µM (inactive); in the assay on UACC-62, 42.2 µM (inactive); in the assay with NCI-H226 it was 26.1 µM (inactive); in the assay on OVCAR-3, 28.4 µM (inactive); in the assay with SNB-75, 46 µM (inactive). The GI50 in the assay with HCT-116 is 45.6 µM (inactive); in the assay on OVCAR-5 it was 85.9 µM (inactive); with MOLT-4 it was 30.9 µM (inactive); in the assay with SK-MEL-2, 64.9 µM (inactive); in the assay with SR, 38.8 µM (inactive); in the assay on NCI/ADR-RES it was 48.2 µM (inactive).

`CO[C@H]1[C@@H](O)[C@@H](O)O[C@@H](O[C@H]2CC[C@@]3(C)[C@H](CC[C@@H]4[C@@H]3[C@H](O)C[C@]3(C)[C@@H](C5=CC(=O)OC5)CC[C@]43O)C2)[C@@H]1O`: the GI50 in the assay on OVCAR-4 was 0.192 µM (active); in the assay with HOP-92, 0.531 µM (active); in the assay with MDA-N, 0.243 µM (active); in the assay on Malme-3M, 0.198 µM (active); in the assay on ACHN, 0.0471 µM (active); in the assay on HCT-15, 0.281 µM. The GI50 in the assay with COLO 205 is 0.441 µM (active); in the assay with SF-539, 0.08 µM (active); with UACC-62, 0.355 µM (active); in the assay with NCI-H226 it was 0.69 µM (active); with OVCAR-3, 0.112 µM (active); with SNB-75 it was 0.354 µM (active). Further, the GI50 in the assay on HCT-116 was 0.178 µM (active); in the assay on OVCAR-5 it was 0.601 µM (active); with MOLT-4 it was 0.0304 µM (active); with SK-MEL-2, 0.299 µM (active); with SR it was 0.21 µM (active); in the assay with NCI/ADR-RES, 0.222 µM (active).

For `c1ccc2c(c1)c(N1CCCCC1)cc1nc3c(cc(N4CCCCC4)c4ccccc43)nc12`, the GI50 in the assay with OVCAR-4 is > 100 µM (inactive); in the assay with HOP-92, > 100 µM (inactive); with MDA-N it was > 100 µM (inactive); in the assay on Malme-3M, > 100 µM (inactive); with ACHN it was > 100 µM (inactive); in the assay on HCT-15, greater than 100 µM. For the same compound, the GI50 in the assay with COLO 205 was > 100 µM (inactive); in the assay with SF-539, > 100 µM (inactive); in the assay with UACC-62, > 100 µM (inactive); with NCI-H226 it was > 100 µM (inactive); with OVCAR-3 it was > 100 µM (inactive); in the assay with SNB-75 it was 11.9 µM (inactive). Moreover, the GI50 in the assay with HCT-116, in the assay on OVCAR-5, with MOLT-4, in the assay on SK-MEL-2, in the assay with SR and in the assay with NCI/ADR-RES was > 100 µM (inactive) each time.

For `COc1cc(S(=O)(=O)Nc2nc(-c3ccc(N4C(=O)C(CC(=O)O)SC4c4ccccc4O)cc3)cs2)ccc1Cl` (centres undefined), the GI50 is 34.3 µM (inactive) with OVCAR-4; 31 µM (inactive) in the assay with HOP-92; > 100 µM (inactive) in the assay with MDA-N; > 100 µM (inactive) in the assay on Malme-3M; > 100 µM (inactive) in the assay with ACHN; 47.5 µM in the assay on HCT-15. The GI50 was 83.4 µM (inactive) in the assay with COLO 205; > 100 µM (inactive) in the assay on SF-539; 72.9 µM (inactive) in the assay with UACC-62; 61.4 µM (inactive) in the assay with NCI-H226; 55.7 µM (inactive) in the assay on OVCAR-3; > 100 µM (inactive) with SNB-75. The GI50 in the assay on HCT-116 was 46.3 µM (inactive); in the assay on OVCAR-5, > 100 µM (inactive); in the assay on MOLT-4, 49.5 µM (inactive); in the assay on SK-MEL-2, > 100 µM (inactive); in the assay with SR, 99.8 µM (inactive); in the assay with NCI/ADR-RES, > 100 µM (inactive).
